Reference: patent publication EP4417607A1, “HETEROCYCLIC COMPOUND AS SOS1 INHIBITOR AND USES THEREOF” (Nanjing Zaiming Pharmaceutical Co., Ltd., priority 2021, dated 2023)

What was measured:
CYP2C9 = target: T1, CYP2C9 (Homo sapiens, UniProt P11712); experiment: CYP2C9 enzymatic activity inhibition in human liver microsomes; assay type: in vitro ADME; details: IC50, human liver microsome, substrate diclofenac
T1 construct: Human liver microsome (Corning 452117); tissue Corning 452117; host or cells: human liver microsomes
T1 sequence (P11712 whole entry): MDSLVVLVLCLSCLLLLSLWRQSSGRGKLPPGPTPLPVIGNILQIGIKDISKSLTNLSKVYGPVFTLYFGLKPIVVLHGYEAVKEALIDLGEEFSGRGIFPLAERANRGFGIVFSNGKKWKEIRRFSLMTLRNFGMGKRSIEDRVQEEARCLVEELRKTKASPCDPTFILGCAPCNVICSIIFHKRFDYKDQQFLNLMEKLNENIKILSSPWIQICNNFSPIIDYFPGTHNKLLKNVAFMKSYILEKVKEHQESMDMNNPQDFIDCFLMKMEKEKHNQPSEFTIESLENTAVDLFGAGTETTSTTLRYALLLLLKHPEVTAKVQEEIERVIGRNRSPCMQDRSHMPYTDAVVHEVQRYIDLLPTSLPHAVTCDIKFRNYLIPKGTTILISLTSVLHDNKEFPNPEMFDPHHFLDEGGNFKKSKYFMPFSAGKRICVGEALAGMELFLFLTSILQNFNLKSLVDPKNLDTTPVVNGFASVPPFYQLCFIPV
Experimental: The inhibition of CYP2C9, CYP2D6, and CYP3A4 enzymatic activity by the compound of the present invention was determined using the following method. • I. Experimental materials and instruments • 1. Human liver microsome (Corning 452117) • 2. Na2HPO4 (Sigma SLBZ6180) • 3. KH2PO4 (Sigma SLBT6559) • 4. NADPH (Solarbio 705Y021) • […] • 6. Positive substrates diclofenac (Sigma SLBV3438), dextromethorphan (TRC 3-EDO-175-1), and midazolam (Cerilliant FE01161704) • 7. Positive inhibitors sulfaphenazole (D. Ehrenstorfer GmbH 109012), quinidine (TCI WEODL-RE), and ketoconazole (Sigma 100M1091V) • 7. AB Sciex Triple Quad 5500 liquid chromatography-mass spectrometry system • II. Procedures • 1. Preparation of 100 mM phosphate-buffered saline (PBS): 7.098 g Na2HPO4 was weighed. 500 mL pure water was added. The mixture was dissolved by sonication to give solution A. 3.400 g KH2PO4 was weighed. 250 mL pure water was added. The mixture was dissolved by sonication to give solution B. The solution A was placed in a stirrer, and the solution B was slowly added until the pH reached 7.4 to prepare the 100 mM PBS buffer. • 2. A 10 mM NADPH solution was prepared with a 100 mM PBS buffer. A 10 mM stock solution of the compound of the present invention was diluted with DMSO to give a compound working solution at a concentration of 200× (6000, 2000, 600, 200, 60, 20, and 0 µM). The positive inhibitor stock solution was diluted with DMSO to give a positive inhibitor working solution at a concentration of 200× (sulfaphenazole, 1000, 300, 100, 30, 10, 3, and 0 µM; quinidine/ketoconazole, 100, 30, 10, 3, 1, 0.3, and 0 µM). Substrate working solutions (120 µM diclofenac, 400 µM dextromethorphan, and 200 µM midazolam) at a concentration of 200× were prepared with water, acetonitrile, or acetonitrile/methanol. • 3. […]
The values were calculated by Excel XLfit 5.3.1.3 to obtain IC50 values for the compounds of the present invention against CYP2C9, CYP2D6, and CYP3A4 as shown in Table 8. […]

[1] = test system: DLD-1 cell subcutaneous tumor model; experiment: Growth inhibition in DLD-1 cell subcutaneous tumor model; assay type: in vivo, NU/NU mice; details: for TGI(%): 15 mg/kg, PO, BID, DLD-1 subcutaneous tumor, NU/NU mice
From the text: • Human colorectal cancer DLD-1 cell: ATCC, CCL-221 • RPMI-1640 culture medium: Gibco, REF: 61870-036 • Fetal bovine serum: Gibco, REF: 10091-148 • 0.25% trypsin-EDTA: Gibco, REF: 25200-072 • D-PBS (phosphate-buffered saline without calcium and magnesium ions): Hyclone, Cat. No.: SH30256.01 • Matrigel: Corning, Cat. No.: 356237
• Animal information: NU/NU mice, female, aged 6-7 weeks, 24-30 g, purchased from Beijing Vital River Biotechnology Co., Ltd. • Cell culture: human colon cancer cell strain DLD-1 was cultured in vitro under the conditions of RPMI-1640 (cell culture medium) added with 10% fetal bovine serum and 1% Pen Strep (Gibco penicillin-streptomycin diabody), and an incubator at 37 °C with 5% CO2. The cells were digested with a 0.25% trypsin-EDTA digestive solution twice a week for passaging as per conventional practice. When cell confluence was 80%-90% and a required amount was achieved, the cells were collected and counted. Cell inoculation: 0.1 mL/(containing 5×10^6) DLD-1 cell suspension (RPMI-1640: Matrigel, volume ratio 1: 1) was inoculated subcutaneously into the right lumbar dorsal part of each mouse. On day 6 after inoculation of the cells, the mice were randomly grouped and administrated based on tumor volume. The day when random grouping was performed was day 0.
Tumor diameters were measured twice weekly using a vernier caliper. The tumor volume was calculated using the following formula: V = 0.5a × b^2, where a and b represent the long diameter and short diameter of the tumor, respectively. Mouse body weight was measured twice weekly.
The anti-tumor therapeutic effect of the compound was evaluated by tumor growth inhibition rate TGI (%). TGI (%) = [(1 - (average tumor volume at the end of administration in a treatment group - average tumor volume at the start of administration of the treatment group)) / (average tumor volume at the end of treatment of the solvent control group - average tumor volume at the start of treatment of the solvent control group)] × 100%.

| SMILES | IC50 (CYP2C9) | inhibitory effect on tumor growth ([1]; 15 mg/kg orally twice a day, P < 0.0001) | TGI(%) [1] |
| --- | --- | --- | --- |
| [2H]C([2H])([2H])Oc1c(=O)n(C2(CF)CC2)cc2c(N[C@H](C)c3cccc(C(F)F)c3F)nc(C)nc12 [Example 23, (R)-4-((1-(3-(difluoromethyl)-2-fluorophenyl)ethyl)amino)-6-(1-(fluoromethyl)cyclopropyl)-8-(methoxy-d3)-2-methylpyrido[4,3-d]pyrimidine-7(6H)-one] | > 30 µM |  |  |
| Cc1nc(N[C@H](C)c2cccc(C(F)F)c2F)c2cn(C3(CF)CC3)c(=O)c(N3CCOC[C@@H]3C)c2n1 [Example 40, 4-(((R)-1-(3-(difluoromethyl)-2-fluorophenyl)ethyl)amino)-6-(1-(fluoromethyl)cyclopropyl)-2-methyl-8-((S)-3-methylmorpholine)pyrido[4,3-d]pyrimidine-7(6H)-one] | > 30 µM | significant inhibitory effect on tumor growth | 59.0% |
| [2H][C@](C)(Nc1nc(C)nc2c(N3CCOCC3)c(=O)n(C3(CF)CC3)cc12)c1cccc(C(F)F)c1F [Example 55, (R)-4-((1-(3-(difluoromethyl)-2-fluorophenyl)ethyl-1-d)amino)-6-(1-(fluoromethyl)cyclopropyl)-2-methyl-8-morpholinylpyrido[4,3-d]pyrimidine-7(6H)-one] | > 30 µM |  | 65.4% |
